Experimental data published in patent US20220047716A1, “COMBINATION THERAPIES WITH ANTI-FOLATE RECEPTOR ANTIBODY CONJUGATES” (SUTRO BIOPHARMA, INC., priority 2018, published 2022).
Values joined by “and” are separate entries in the source; they are usually repeats but may differ in a detail not shown here. Equal entries are not always repeated.

Key:
[1] = system: Igrov1 tumors; experiment: Igrov1 ovarian tumor xenograft efficacy in SCID Beige mice; format: in vivo; conditions: Igrov1, day 29; ADC Molecule 4 2.5 mg/kg single dose; carboplatin 60 mg/kg q7dx2
Method: Igrov1 ovarian cancer cells were implanted subcutaneously into SCID Beige mice and treated with a single dose of 2.5 mg/kg FolRα ADC variants listed in Table 20. ADCs were administered when tumors reached ˜150 mm^3.

[2] = Pharmacokinetics of free drugs (I) and (II) in Sprague-Dawley rats; format: in vivo; conditions: IV bolus 0.4 or 1 mg/kg, data not shown
Method: To assess the pharmacokinetic profile of free drug (I), female Sprague-Dawley rats (mean body weight 250 g) were given either a 0.4 mg/kg or 1 mg/kg dose by IV bolus administration (N=three animal per dose level) via an indwelling jugular vein catheter. Blood samples were collected at […], 1, 2, 8, 24, 32, 48, and 72 hour post-dose. Levels of free drug (I) and (II) were measured by LC-MS/MS and non-compartmental pharmacokinetic analysis was conducted using Phoenix WinNonlin Version 6.4 (Pharsight Corporation). The PK of free drug (I) could not be estimated due to the fact that concentrations of (I) increased from 2 to 8 hours and were undetectable thereafter.

[3] = Body weight change in rats given free drugs; format: in vivo; conditions: IV bolus, free drug (I) two doses (0.4, 1 mg/kg), free drug (II) 0.4 mg/kg
[4] = system: MC38-hFolRα tumors; experiment: MC38-hFolRα tumor model, combination with Avelumab; conditions: ADC Molecule 4 10 or 15 mg/kg once IV; Avelumab q3dx3 intraperitoneally
Method: Growth curves are shown until >50% of animals in the single agent treatment groups were euthanized due to reaching tumor size limit based on IACUC protocol. […] Statistical analysis for comparison to vehicle control was performed using one-way ANOVA with Dunnett's multiple comparisons test. A probability of less than 5% (p<0.05) was considered as significant. […] All graphs are presented as mean or individual values±SEM.

Q: For `N.N.O=C([O-])C1(C(=O)[O-])CCC1.[Pt+2]` [carboplatin], which “Final mean tumor size” value [1] is on record?
A: The value was 842 mm^3.

Q: What about the “Tumor growth inhibition (TGI)” value [1] of the same compound?
A: Its value is 70% and 47%.

Q: Which results are given for `CN[C@H](C(=O)N[C@H](C(=O)N(C)[C@H](/C=C(\C)C(=O)O)C(C)C)C(C)(C)C)C(C)(C)c1cccc(N)c1` [free drug (I)]?
A: Plasma level of free drug [2]: undetectable at 24 hours post dose; Effect on body weight [3]: did not have an effect on the body weight of the animals

Q: Which “Effect on body weight” value [3] does the source give for `COc1cc2cc(c1Cl)N(C)C(=O)C[C@H](OC(=O)[C@H](C)N(C)C(=O)CCC(C)(C)S)[C@]1(C)O[C@H]1[C@H](C)[C@@H]1C[C@@](O)(NC(=O)O1)[C@H](OC)/C=C/C=C(/C)C2` [free drug (II), reference compound] here?
A: The value was “progressive body weight loss was observed”.

Q: For “Avelumab: PD-L1 inhibitor Avelumab (clinical grade)”, which “Initial effect on MC38-hFolRα tumor growth” value [4] is on record?
A: The value was “tumor stasis until approximately day 7”.
